Data on two molecules can be found in PMC11290694 (Science (New York, N.Y.), 2024).

As usually defined, the Kd is the equilibrium constant for the complex coming apart. Low readings indicate a tighter complex, high ones a looser complex.

The target of one assay is PiB. Kind of assay: UV-visible absorption titration, single-site global fit. In kind it is binding, synthetic construct.
Another assay concerns the target PiB′. Described as above. The assay is classed as binding, synthetic construct.

Read-outs that look alike come from different tables or passages of the source.

In the case of `CNCc1ccc(-c2cc3cc(F)cc(C(N)=O)c3o2)cc1` [mefuparib], the Kd worked out at 190 nM on PiB; 350 nM at PiB′ (PDB 8TNB is labelled mefuparib-bound PiB in b31 but PiB′ in b20 and b22).

For `NC(=O)c1cccc2cn(-c3ccc([C@@H]4CCCNC4)cc3)nc12` [niraparib], the Kd at PiB was found to be 600 nM; on PiB′, 550 nM.
